Experimental data from the NIST ThermoML archive (doi:10.1016/j.jct.2019.01.021).
± gives the expanded uncertainty stated by the source.

Experiments:
[1] = for molar entropy: 101.33 kPa, Small (less than 1 g) adiabatic calorimetry
[2] = Molar enthalpy of transition or fusion
[3] = Crystal 2, Adiabatic calorimetry

## N.NS(=O)(=O)O [ammonium sulfamate]
[1]; 5 K, Crystal 2
  molar entropy: 0.0002827 J/K/mol
[1]; 10 K, Crystal 2
  molar entropy: 0.07483 ± 0.025 J/K/mol
[1]; 15 K, Crystal 2
  molar entropy: 0.4656 ± 0.091 J/K/mol
[1]; 20 K, Crystal 2
  molar entropy: 1.33 ± 0.25 J/K/mol
[1]; 25 K, Crystal 2
  molar entropy: 2.661 ± 0.17 J/K/mol
[1]; 30 K, Crystal 2
  molar entropy: 4.49 ± 0.25 J/K/mol
[1]; 35 K, Crystal 2
  molar entropy: 6.735 ± 0.42 J/K/mol
[1]; 40 K, Crystal 2
  molar entropy: 9.229 ± 0.5 J/K/mol
[1]; 45 K, Crystal 2
  molar entropy: 12.14 ± 0.42 J/K/mol
[1]; 50 K, Crystal 2
  molar entropy: 15.13 ± 0.5 J/K/mol
[1]; 55 K, Crystal 2
  molar entropy: 18.29 ± 0.58 J/K/mol
[1]; 60 K, Crystal 2
  molar entropy: 21.53 ± 0.67 J/K/mol
[1]; 65 K, Crystal 2
  molar entropy: 24.86 ± 0.75 J/K/mol
[1]; 70 K, Crystal 2
  molar entropy: 28.35 ± 0.91 J/K/mol
[1]; 75 K, Crystal 2
  molar entropy: 31.84 ± 1 J/K/mol
[1]; 80 K, Crystal 2
  molar entropy: 35.42 ± 1.2 J/K/mol
[1]; 90 K, Crystal 2
  molar entropy: 42.65 ± 1.2 J/K/mol
[1]; 100 K, Crystal 2
  molar entropy: 49.97 ± 0.83 J/K/mol
[1]; 110 K, Crystal 2
  molar entropy: 57.29 ± 1 J/K/mol
[1]; 120 K, Crystal 2
  molar entropy: 64.6 ± 1.1 J/K/mol
[1]; 130 K, Crystal 2
  molar entropy: 71.75 ± 1.2 J/K/mol
[1]; 140 K, Crystal 2
  molar entropy: 78.82 ± 1.2 J/K/mol
[1]; 150 K, Crystal 2
  molar entropy: 85.64 ± 1.7 J/K/mol
[1]; 160 K, Crystal 2
  molar entropy: 92.29 ± 1.7 J/K/mol
[1]; 170 K, Crystal 2
  molar entropy: 98.94 ± 1.7 J/K/mol
[1]; 180 K, Crystal 2
  molar entropy: 105.59 ± 1.7 J/K/mol
[1]; 190 K, Crystal 2
  molar entropy: 112.25 ± 1.7 J/K/mol
[1]; 200 K, Crystal 2
  molar entropy: 118.07 ± 1.7 J/K/mol
[1]; 210 K, Crystal 2
  molar entropy: 123.89 ± 1.7 J/K/mol
[1]; 220 K, Crystal 2
  molar entropy: 130.54 ± 1.7 J/K/mol
[1]; 230 K, Crystal 2
  molar entropy: 136.36 ± 1.7 J/K/mol
[1]; 240 K, Crystal 2
  molar entropy: 141.35 ± 1.7 J/K/mol
[1]; 260 K, Crystal 1
  molar entropy: 152.99 ± 1.7 J/K/mol
[1]; 270 K, Crystal 1
  molar entropy: 157.97 ± 1.7 J/K/mol
[1]; 280 K, Crystal 1
  molar entropy: 163.79 ± 1.7 J/K/mol
[1]; 290 K, Crystal 1
  molar entropy: 168.78 ± 1.7 J/K/mol
[1]; 298.15 K, Crystal 1
  molar entropy: 172.94 ± 2.5 J/K/mol
[1]; 300 K, Crystal 1
  molar entropy: 173.77 ± 2.5 J/K/mol
[1]; 310 K, Crystal 1
  molar entropy: 178.76 ± 2.5 J/K/mol
[1]; 320 K, Crystal 1
  molar entropy: 183.75 ± 2.5 J/K/mol
[1]; 330 K, Crystal 1
  molar entropy: 188.74 ± 2.5 J/K/mol
[1]; Crystal 1, DTA
  Normal melting temperature: 133.0 ± 0.4 °C
[1]; [3]
  Triple point temperature: 254.5 ± 0.2 K
[2]; Crystal 1, DSC
  Molar enthalpy of transition or fusion: 3.87 ± 0.191 kcal/mol
[2]; [3]
  Molar enthalpy of transition or fusion: 0.00287 ± 0.00191 kcal/mol
